Where two headings read alike, the source gives them in different places.
Tests used:
[1] = system: HL60-Luc cells; assay: HL60-Luc proliferation assay (BLI); assay type: cell-based; settings: HL-60-Luc, 168 h; 7 days
Procedure: The anti-leukemic activity was also evaluated with a HL60 assay. The HL60 assay was performed by a similar procedure as MV4-11 assay. A derivative of the HL-60 leukemia cell line was generated to express Luciferase and ZsGreen by lentiviral infection with pHIV-Luc-ZsGreen, to enable leukemia growth analysis by bioluminescence imaging (BLI). The initial Luciferase-ZsGreen transduced cell population was sorted for ZsGreen positivity with fluorescence activated cell sorting and individual clones were tested for luciferase expression. […] The HL-60 assay was performed in 96-well plates by treating the HL60-Luc cells with testing compounds at different concentrations for 7 days, followed by BLI to quantify the effects of test articles on cell proliferation.

[2] = system: CXCL1; assay: QPCR gene expression in TNFα-treated HEK293 cells; assay type: cell-based, human; settings: 1 μM, TNFα-treated HEK293 cells, QPCR; for inhibition at 1 µM: Homo sapiens, read-out: Inhibition at 1 μM (% Ctrl) CXCL1
Text: (§1) Two types of cell-based assays for CDK8/19 inhibition were used to test the efficacy of quinoline quinolone compounds described herein (FIG. 3A). The first cell-based assay, which measures the effects of CDK8/19 inhibitors on RNA levels of CDK8/19-regulated genes by quantitative reverse transcription-PCR (QPCR), is based on the ability of CDK8/19 inhibitors to suppress the induction of NFκB-inducible genes by TNFα and to inhibit basal expression of MYC in human embryonic kidney (HEK) 293 cells, as previously described. In this assay, 293 cells growing in DMEM (High-glucose) media supplemented with 10% FBS are pre-treated with the tested inhibitors or DMSO control for 1 hour and then treated with 10 ng/mL TNFα (an activator of NFκB) for 2 hours (in the presence or absence of the tested inhibitors), followed by RNA extraction and QPCR analysis of RNA expression of specific genes conducted as described (Chen et al., ibid), using housekeeping genes RPL13A and GAPDH as normalization standards. […] All the quinoline derivatives inhibited the expression of all three genes.

[3] = system: MYC; assay: QPCR gene expression in TNFα-treated HEK293 cells; assay type: cell-based, human; settings: 1 μM, TNFα-treated HEK293 cells, QPCR; for inhibition at 1 µM: Homo sapiens, read-out: Inhibition at 1 μM (% Ctrl) MYC
Text: as §1

[4] = system: IL8; assay: QPCR gene expression in TNFα-treated HEK293 cells; assay type: cell-based, human; settings: 1 μM, TNFα-treated HEK293 cells, QPCR; for inhibition at 1 µM: Homo sapiens, read-out: Inhibition at 1 μM (% Ctrl) IL8
Text: as §1

[5] = system: CDK8/19-mediated NFκB-driven transcription; assay: NFκB-dependent luciferase reporter assay in parental 293 reporter cells; assay type: cell-based, human; settings: for inhibition at 1 µM / Inhibition of NFκB reporter activity: 1 uM
[6] = system: MV4-11 cells; assay: MV4-11-Luc proliferation assay (BLI); assay type: cell-based; settings: Homo sapiens, MV4-11, 168 h; 7 days
Procedure: The anti-leukemic activity was evaluated with a MV4-11 assay. The population of MV4-11 cells, which depend on CDK8/19 for their proliferation, was made to express Luciferase and ZsGreen by lenvtiral infection with pHIV-Luc-ZsGreen, to enable leukemia growth analysis by bioluminescence imaging (BLI). The initial Luciferase-ZsGreen transduced cell population was sorted for ZsGreen positivity with fluorescence activated cell sorting. The MV4-11 assay was performed in 96-well plates by treating the MV4-11-Luc cells with testing compounds at different concentrations for 7 days, followed by BLI to quantify the effects of test articles on cell proliferation.

[7] = molecular target: CDK8 in complex with Cyclin C (Homo sapiens (Human), UniProt P49336); assay: LanthaScreen Eu Kinase Binding Assay
CDK8 in complex with Cyclin C, sequence (P49336 whole entry): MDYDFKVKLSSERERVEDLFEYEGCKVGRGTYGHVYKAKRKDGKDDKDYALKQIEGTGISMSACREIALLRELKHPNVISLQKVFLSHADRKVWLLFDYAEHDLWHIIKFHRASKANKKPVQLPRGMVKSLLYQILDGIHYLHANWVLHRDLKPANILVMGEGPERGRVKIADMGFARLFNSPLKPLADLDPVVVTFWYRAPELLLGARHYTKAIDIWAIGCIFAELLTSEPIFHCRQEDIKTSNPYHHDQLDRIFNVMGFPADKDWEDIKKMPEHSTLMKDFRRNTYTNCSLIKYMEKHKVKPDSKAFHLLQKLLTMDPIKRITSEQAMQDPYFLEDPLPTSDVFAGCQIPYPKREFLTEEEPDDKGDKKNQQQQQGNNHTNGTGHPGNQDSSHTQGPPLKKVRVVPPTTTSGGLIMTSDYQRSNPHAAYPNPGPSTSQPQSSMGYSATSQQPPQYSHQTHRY
CDK8 in complex with Cyclin C, sequence (P24863 whole entry partner): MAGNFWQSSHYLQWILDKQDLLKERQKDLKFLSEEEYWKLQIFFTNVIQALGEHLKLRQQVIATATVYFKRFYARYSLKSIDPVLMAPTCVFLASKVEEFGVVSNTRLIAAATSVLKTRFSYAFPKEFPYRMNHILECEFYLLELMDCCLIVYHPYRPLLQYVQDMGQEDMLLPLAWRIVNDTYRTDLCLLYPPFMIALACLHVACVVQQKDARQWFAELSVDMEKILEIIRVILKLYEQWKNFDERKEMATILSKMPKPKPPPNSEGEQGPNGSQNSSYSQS
Text: The binding of the tracer to the kinase is detected using a europium-labeled anti-tag antibody, which binds to the kinase of interest. […] The binding of an inhibitor to the kinase competes for binding with the tracer, resulting in a loss of FRET.

[8] = molecular target: MYO3B (Homo sapiens (Human), UniProt Q8WXR4); assay: DiscoverX Kd assay
MYO3B, sequence (Q8WXR4 whole entry): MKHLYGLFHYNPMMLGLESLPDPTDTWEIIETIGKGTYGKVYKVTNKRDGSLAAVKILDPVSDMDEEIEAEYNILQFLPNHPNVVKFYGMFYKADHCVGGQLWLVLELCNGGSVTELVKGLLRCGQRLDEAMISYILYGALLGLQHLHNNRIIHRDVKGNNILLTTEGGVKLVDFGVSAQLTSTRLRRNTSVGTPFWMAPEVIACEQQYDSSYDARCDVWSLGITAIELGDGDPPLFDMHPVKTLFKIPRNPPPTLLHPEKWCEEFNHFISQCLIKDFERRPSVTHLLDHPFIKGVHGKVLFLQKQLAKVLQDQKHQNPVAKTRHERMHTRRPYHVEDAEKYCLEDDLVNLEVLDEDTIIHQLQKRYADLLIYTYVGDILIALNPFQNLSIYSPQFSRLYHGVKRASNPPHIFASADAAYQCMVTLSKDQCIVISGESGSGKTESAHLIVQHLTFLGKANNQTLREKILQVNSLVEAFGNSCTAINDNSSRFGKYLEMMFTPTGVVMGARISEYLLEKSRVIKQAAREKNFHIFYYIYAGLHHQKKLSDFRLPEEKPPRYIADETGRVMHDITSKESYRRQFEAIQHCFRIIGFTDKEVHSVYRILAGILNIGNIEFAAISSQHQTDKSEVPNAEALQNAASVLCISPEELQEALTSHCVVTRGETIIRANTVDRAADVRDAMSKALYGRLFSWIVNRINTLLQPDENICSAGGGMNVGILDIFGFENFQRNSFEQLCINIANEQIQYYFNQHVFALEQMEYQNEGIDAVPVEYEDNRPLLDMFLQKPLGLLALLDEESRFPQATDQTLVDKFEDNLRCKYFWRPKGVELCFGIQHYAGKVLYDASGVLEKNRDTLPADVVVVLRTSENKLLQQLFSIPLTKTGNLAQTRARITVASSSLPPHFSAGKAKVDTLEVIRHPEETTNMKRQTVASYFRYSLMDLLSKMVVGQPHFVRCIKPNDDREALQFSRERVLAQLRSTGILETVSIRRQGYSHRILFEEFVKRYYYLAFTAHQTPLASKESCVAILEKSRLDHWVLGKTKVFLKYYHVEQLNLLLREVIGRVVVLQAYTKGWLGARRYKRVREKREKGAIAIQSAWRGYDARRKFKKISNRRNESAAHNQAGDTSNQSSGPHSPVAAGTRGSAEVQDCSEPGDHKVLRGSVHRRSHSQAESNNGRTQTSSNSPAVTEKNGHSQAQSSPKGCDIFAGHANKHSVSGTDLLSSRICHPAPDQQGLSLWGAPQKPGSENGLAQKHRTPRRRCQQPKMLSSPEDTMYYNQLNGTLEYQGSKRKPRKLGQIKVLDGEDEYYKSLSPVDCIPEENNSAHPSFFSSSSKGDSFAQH

[9] = molecular target: MAP4K2 (Homo sapiens (Human), UniProt Q12851); assay: DiscoverX Kd assay; settings: average from duplicate measurements
MAP4K2, sequence (Q12851 whole entry): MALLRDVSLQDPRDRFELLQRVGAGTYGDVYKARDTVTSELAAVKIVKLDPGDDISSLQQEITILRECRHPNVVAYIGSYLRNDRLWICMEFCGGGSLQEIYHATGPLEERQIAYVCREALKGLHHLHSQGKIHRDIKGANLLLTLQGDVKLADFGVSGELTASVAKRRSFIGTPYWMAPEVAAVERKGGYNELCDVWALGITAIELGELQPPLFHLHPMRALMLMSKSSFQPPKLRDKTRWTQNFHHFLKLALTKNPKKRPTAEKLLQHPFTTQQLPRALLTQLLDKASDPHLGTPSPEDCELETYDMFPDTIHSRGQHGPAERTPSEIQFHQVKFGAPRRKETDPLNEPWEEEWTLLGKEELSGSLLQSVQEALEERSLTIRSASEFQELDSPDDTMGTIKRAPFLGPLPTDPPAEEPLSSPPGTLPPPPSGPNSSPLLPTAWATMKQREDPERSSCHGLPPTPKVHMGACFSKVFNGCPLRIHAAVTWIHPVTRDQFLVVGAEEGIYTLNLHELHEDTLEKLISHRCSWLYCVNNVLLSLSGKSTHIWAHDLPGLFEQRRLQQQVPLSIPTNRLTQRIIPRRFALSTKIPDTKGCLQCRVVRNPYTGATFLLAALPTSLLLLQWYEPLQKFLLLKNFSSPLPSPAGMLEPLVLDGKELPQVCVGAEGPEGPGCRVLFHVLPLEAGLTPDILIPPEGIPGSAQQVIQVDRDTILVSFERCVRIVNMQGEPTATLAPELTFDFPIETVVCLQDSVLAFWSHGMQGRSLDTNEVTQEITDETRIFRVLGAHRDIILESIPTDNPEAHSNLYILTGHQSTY

[10] = system: CDK8/19; assay: Wash-off assay, MYC and JUN expression in 293 cells (QPCR); assay type: cell-based, human; settings: 1 μM for 2 hours, then wash-off
Procedure: RNA was extracted at different time points after wash-off (up to 24 hrs) and expression of MYC and JUN genes that are CDK8/19-dependent in these cells was measured by QPCR. […] In contrast, after Senexin C treatment and wash-off, the effects of Senexin C were largely retained for at least 6 hrs after wash-off.

[11] = molecular target: HASPIN (Homo sapiens (Human), UniProt Q8TF76); assay: DiscoverX Kd assay; settings: average from duplicate measurements
HASPIN, sequence (Q8TF76 whole entry): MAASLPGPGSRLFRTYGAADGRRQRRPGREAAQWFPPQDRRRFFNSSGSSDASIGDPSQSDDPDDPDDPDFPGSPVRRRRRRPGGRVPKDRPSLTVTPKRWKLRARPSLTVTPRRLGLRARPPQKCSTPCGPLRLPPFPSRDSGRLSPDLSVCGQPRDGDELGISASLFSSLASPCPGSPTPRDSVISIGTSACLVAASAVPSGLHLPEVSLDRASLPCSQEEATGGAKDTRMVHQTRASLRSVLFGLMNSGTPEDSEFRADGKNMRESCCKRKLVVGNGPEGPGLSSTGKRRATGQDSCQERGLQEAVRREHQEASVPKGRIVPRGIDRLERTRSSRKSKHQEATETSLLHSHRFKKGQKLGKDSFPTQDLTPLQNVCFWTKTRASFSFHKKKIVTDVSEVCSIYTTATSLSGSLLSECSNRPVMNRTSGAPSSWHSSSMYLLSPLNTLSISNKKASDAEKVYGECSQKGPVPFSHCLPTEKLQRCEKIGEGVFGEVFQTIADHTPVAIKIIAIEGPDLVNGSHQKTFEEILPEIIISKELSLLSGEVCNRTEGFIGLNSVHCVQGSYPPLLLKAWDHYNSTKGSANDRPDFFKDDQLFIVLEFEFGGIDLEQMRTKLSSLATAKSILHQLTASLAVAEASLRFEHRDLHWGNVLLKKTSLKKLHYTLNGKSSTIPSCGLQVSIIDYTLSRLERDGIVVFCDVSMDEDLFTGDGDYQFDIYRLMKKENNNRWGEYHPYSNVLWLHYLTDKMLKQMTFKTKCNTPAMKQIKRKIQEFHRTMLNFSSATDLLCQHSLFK

[12] = molecular target: CDK8 (Homo sapiens (Human), UniProt P49336); assay: DiscoverX Kd assay; settings: average from duplicate measurements
CDK8, sequence (P49336 whole entry): as the sequence (P49336 whole entry) above

[13] = Mouse pharmacokinetics, intraperitoneal, serum; assay type: in vivo, mice; settings: i.p. 27 mg/kg, male Balb/c mice
Procedure: […] Blood samples were collected at different time points (5 mice per time point) and Senexin C concentration in the serum was measured by LC/MS/MS.

[14] = system: NFκB-dependent promoter in CDK8/19 deficient (double-knockout) reporter cells; assay: NFκB-dependent luciferase reporter assay, CDK8/19 double-knockout vs wild-type 293 cells; settings: double-knockout vs parental reporter cells
Text: The second cell-based assay measures the effects of CDK8/19 on the expression of firefly luciferase reporter from a NFκB-dependent promoter in 293 cells.

[15] = parental 293-derived reporter cell line, read-out: HEK293 NFKB CDK8 Reporter IC50
[16] = Homo sapiens, 293/NFkB-luc, read-out: IC50 (293-NFKB-Luc)

IC50 [1] | IC50 [6] | IC50 [7] | SMILES | IC50 [5, 16] | further results
 |  |  | CC(C)Nc1ccnc2ccc(C#N)cc12 [compound 6136, 4-(isopropylamino)quinoline-6-carbonitrile] |  | inhibition at 1 µM [2]: 80.3%; inhibition at 1 µM [3]: 65.6%; inhibition at 1 µM [4]: 74.1%
 |  |  | N#Cc1ccc2ncnc(NCCc3ccccc3)c2c1 [Senexin A, reference compound] |  | IC50 [5, 15]: 355 nM; Inhibition at 1 μM (% Ctrl) CXCL1 [2]: 34.19%; Inhibition at 1 μM (% Ctrl) MYC [3]: 24.94%; Inhibition at 1 μM (% Ctrl) IL8 [4]: 29.53%
 |  |  | CCCNc1ccnc2ccc(C#N)cc12 [compound 6134, 4-(propylamino)quinoline-6-carbonitrile] |  | inhibition at 1 µM [2]: 72.2%; inhibition at 1 µM [3]: 57.2%; inhibition at 1 µM [4]: 62.1%
 |  |  | Nc1ccc2nccc(NCCc3ccccc3)c2c1 [compound 6164, N4-phenethylquinoline-4,6-diamine] |  | inhibition at 5 µM ([5]; Homo sapiens, 5 uM): 5%
67 nM | 146 nM | 18.9 nM | CC(C)(C)OC(=O)N1CCN(C(=O)c2ccc3cc(CCNc4ccnc5ccc(C#N)cc45)ccc3c2)CC1 [compound 6440, tert-butyl 4-[6-[2-[(6-cyano-4-quinolyl)amino]ethyl]naphthalene-2-carbonyl]piperazine-1-carboxylate] | 137 nM | 
163 nM | 218 nM | 5.8 nM | N#Cc1ccc2nccc(NCCc3ccc4cc(C(=O)N5CC[S+]([O-])CC5)ccc4c3)c2c1 [compound 6295, 4-[2-[6-(1-oxo-1,4-thiazinane-4-carbonyl)-2-naphthyl]ethylamino]quinoline-6-carbonitrile] | 160 nM | 
308 nM |  | 6.5 nM | N#Cc1ccc2nccc(NCCc3ccc4cc(C(=O)N5CCN(CCCN)CC5)ccc4c3)c2c1 [compound 6346, 4-[2-[6-[4-(3-aminopropyl)piperazine-1-carbonyl]-2-naphthyl]ethylamino]quinoline-6-carbonitrile] | 837 nM | 
 |  |  | Ic1ccc2nccc(NCCc3ccccc3)c2c1 [compound 6147, 6-iodo-N-phenethylquinolin-4-amine] |  | inhibition at 1 µM ([5]; Homo sapiens): < 15%
255 nM |  | 9.2 nM | CN(CCCN)C(=O)c1ccc2cc(CCNc3ccnc4ccc(C#N)cc34)ccc2c1 [compound 6337, N-(3-aminopropyl)-6-[2-[(6-cyano-4-quinolyl)amino]ethyl]-N-methyl-naphthalene-2-carboxamide] | 113 nM | 
73.4 nM | 92 nM | 9.7 nM | N#Cc1ccc2nccc(NCCc3ccc4cc(C(=O)N5CCSCC5)ccc4c3)c2c1 [compound 6294, 4-[2-[6-(thiomorpholine-4-carbonyl)-2-naphthyl]ethylamino]quinoline-6-carbonitrile] | 107 nM | 
 |  |  | CN1CCN(C(=O)c2ccc3cc(CCNc4ncnc5ccc(C#N)cc45)ccc3c2)CC1 [Senexin B, reference compound] |  | IC50 [5, 15]: 117 nM; Inhibition of MYO3B [8]: not inhibited; Kd [9]: 570 nM; Time to full restoration of JUN expression after wash-off [10]: 45 min; Time to full restoration of MYC expression after wash-off [10]: 2 h; Kd [11]: 1700 nM; Kd [12]: 59 nM; AUC [13]: 1760.53 ng·h/mL; Cmax [13]: 4248 ng/mL; bioavailability (F %) [13]: 57%; elimination rate k [13]: 3.99 h⁻¹; t1/2 [13]: 10.2 min
61 nM | 122 nM | 8.1 nM | CC(C)(C)OC(=O)NCCCN1CCN(C(=O)c2ccc3cc(CCNc4ccnc5ccc(C#N)cc45)ccc3c2)CC1 [compound 6345, tert-butyl-(3-(4-(6-(2-((6-cyanoquinolin-4-yl)amino)ethyl)-2-naphthoyl)piperazin-1-yl)propyl)carbamate] | 85 nM | 
162 nM | 295 nM | 11.7 nM | CC(=O)N1CCN(C(=O)c2ccc3cc(CCNc4ccnc5ccc(C#N)cc45)ccc3c2)CC1 [compound 6326, 4-[2-[6-(4-acetylpiperazine-1-carbonyl)-2-naphthyl]ethylamino]quinoline-6-carbonitrile] | 178 nM | 
 |  |  | Brc1ccc2nccc(NCCc3ccccc3)c2c1 [compound 6146, 6-bromo-N-phenethylquinolin-4-amine] |  | Inhibition of NFκB reporter activity [5]: N.A. (10% inh. at 1 uM); inhibition at 1 µM ([5]; Homo sapiens): < 15%
260 nM | 275 nM | 4.6 nM | N#Cc1ccc2nccc(NCCc3ccc4cc(C(=O)N5CCS(=N)(=O)CC5)ccc4c3)c2c1 [compound 6299, 4-[2-[6-(1-imino-1-oxo-1,4-thiazinane-4-carbonyl)-2-naphthyl]ethylamino]quinoline-6-carbonitrile] | 213 nM | 
154 nM | 181 nM | 9.3 nM | CN(CCCNC(=O)OC(C)(C)C)C(=O)c1ccc2cc(CCNc3ccnc4ccc(C#N)cc34)ccc2c1 [compound 6336, tert-butyl-N-[3-[[6-[2-[(6-cyano-4-quinolyl)amino]ethyl]naphthalene-2-carbonyl]-methyl-amino]propyl]carbamate] | 208 nM | 
 |  |  | Clc1ccc2nccc(NCCc3ccccc3)c2c1 [compound 6145, 6-chloro-N-phenethylquinolin-4-amine] |  | Inhibition of NFκB reporter activity [5]: N.A. (8% inh. at 1 uM); inhibition at 1 µM ([5]; Homo sapiens): < 15%
 |  |  | FC(F)(F)c1ccc2nccc(NCCc3ccccc3)c2c1 [compound 6150, N-phenethyl-6-(trifluoromethyl)quinolin-4-amine] |  | Inhibition of NFκB reporter activity [5]: N.A. (10% inh. at 1 uM); inhibition at 1 µM ([5]; Homo sapiens): < 15%
 |  |  | Cc1ccc(S(=O)(=O)N[C@@H](Cc2ccccc2)C(=O)CCl)cc1 [TPCK, reference compound] |  | IC50 in CDK8/19-deficient cells relative to wild-type cells [14]: almost the same

SMILES | IC50 [1] | IC50 [6] | IC50 [7] | IC50 [5, 16] | further results
CN(C)C(=O)c1ccc2cc(CCNc3ccnc4ccc(C#N)cc34)ccc2c1 [compound 6219, 6-(2-((6-cyanoquinolin-4-yl)amino)ethyl)-N,N-dimethyl-2-naphthamide] | 77 nM |  |  |  | 
N#Cc1ccc2nccc(NCCc3ccc4cc(C(=O)N5CCNCC5)ccc4c3)c2c1 [compound 6283, 4-((2-(6-(piperazine-1-carbonyl)naphthalen-2-yl)ethyl)amino)quinoline-6-carbonitrile] | 756 nM |  |  |  | 
N#Cc1ccc2nccc(NCCc3ccc4cc(C(=O)N5CCN(CCCO)CC5)ccc4c3)c2c1 [compound 6216, 4-((2-(6-(4-(3-hydroxypropyl)piperazine-1-carbonyl)naphthalen-2-yl)ethyl)amino)quinoline-6-carbonitrile] | 161 nM |  |  |  | 

— patent US12281080B2, “Quinoline-based compounds and methods of inhibiting CDK8/19” (University of South Carolina, priority 2018, dated 2025)
